Source: patent US20220257595A1, “MACITENTAN FOR USE IN TREATING PORTOPULMONARY HYPERTENSION” (ACTELION PHARMACEUTICALS LTD, priority 2019, published 2022)

Tested on: patients with PoPH
Experiment: PORTICO safety: treatment-emergent AEs, SAEs, AESIs, deaths, discontinuations
Type: in vivo
Description: For the evaluation of treatment-emergent safety endpoints in the DB phase, the observation period for each individual subject started at the time of the first administration of macitentan or placebo and ended with the start of OL treatment or 30 days after DB treatment discontinuation (whichever occurred first). The safety variables listed below apply to the DB treatment-emergent period and the macitentan treatment-emergent period. The DB treatment-emergent period was defined as the period from the DB treatment start date up to the EOT-DB+30 days or to the EOT-DB for patients entering OL. The macitentan treatment-emergent period was defined as the period from the first intake of macitentan up to end of macitentan treatment (EOMT)+30 days. EOMT was defined as EOT-DB (for patient who received macitentan only in the DB period) or EOT-OL when applicable. For patients entering OLE, the EOMT is EOT-OL. • Treatment-emergent AEs • Treatment-emergent deaths • Treatment-emergent serious adverse events (SAEs) • AEs leading to premature discontinuation of study treatment • Occurrence of post-baseline LFT (ALT and/or AST) abnormalities, classified as: • ≥3×ULN; • ≥5×ULN; • ≥8×ULN; • ≥3×ULN and <5×ULN; • […] and <8×ULN. • Occurrence of post-baseline ALT and/or AST abnormality 3×ULN and concomitant (i.e., at the same time) total bilirubin ≥2×ULN • Occurrence of post-baseline ALT and/or AST abnormality ≥3×ULN and concomitant (i.e., at the same time) total bilirubin ≥2×ULN and increased as compared to baseline • Occurrence of hemoglobin abnormalities, classified as: • ≤80 g/L, • >80 and ≤100 g/L, • decrease from baseline ≥20 g/L and <50 g/L, • decrease from baseline ≥50 g/L, • <100 g/L and concurrent (i.e., at the same time) decrease from baseline ≥20 g/L. • Other treatment-emergent marked laboratory abnormalities • Change from baseline/macitentan baseline to EOT-DB/EOMT in vital signs • Change from baseline/macitentan baseline to EOT-DB/EOMT in laboratory variables • Change from baseline/macitentan baseline to EOT-DB/EOMT in Child-Pugh classification • Change from baseline/macitentan baseline to EOT-DB/EOMT in MELD score
(i) Adverse events: All AEs occurring after study start (i.e., signing of informed consent) and up to 30 days after study treatment discontinuation were required to be recorded. AEs still ongoing more than 30 days after study treatment discontinuation were required to be followed up until they were no longer considered clinically relevant.
(ii) Serious adverse events, including associated with study design or protocol-mandated procedures: During the screening period, all SAEs occurring after study start (i.e., signing of informed consent) were required to be recorded (whether considered associated or not associated to study design or study-mandated procedures). All SAEs, regardless of investigator-attributed causal relationship, occurring during the treatment period up to the end of the 30-day follow up period, were required to be reported. SAEs still ongoing at the EOS visit were required to be followed up until resolution or stabilization, or until the event outcome was provided, e.g., death. New SAEs occurring after the 30-day follow-up period were required to be reported within 24 hours.
In addition, the following adverse events of special interest (AESIs) were analyzed: • “Edema and fluid retention”
Any treatment-emergent AE with PT listed in the Standardised MedDRA Query (SMQ) “Haemodynamic oedema, effusions and fluid overload (SMQ)” or with PT equal to “Pulmonary congestion” defined in the latest available MedDRA version, with the exception of PTs containing “site”. • “Anemia”

[1] = DB phase, Safety set, 10 mg, N = 43
[2] = DB phase, macitentan group (6 patients)
[3] = DB phase, macitentan group, 7 patients
[4] = OL phase, Macitentan treated set, N = 84
[5] = macitentan DB + OL phase, Macitentan treated set, N = 84

Structure (SMILES): CCCNS(=O)(=O)Nc1ncnc(OCCOc2ncc(Br)cn2)c1-c1ccc(Br)cc1 [macitentan, N-[5-(4-Bromophenyl)-6-[2-[(5-bromo-2-pyrimidinyl)oxy]ethoxy]-4-pyrimidinyl]-N′-propylsulfamide]
- AEs that occurred more frequently than in the placebo group (DB phase): peripheral edema/peripheral swelling, bronchitis and decreased hemoglobin/anemia
- Deaths (DB phase): no deaths
- AE leading to premature discontinuation of study treatment, Alveolitis [1]: 1 (2.3) n (%)
- AE leading to premature discontinuation of study treatment, Anaemia [1]: 1 (2.3) n (%)
- AE leading to premature discontinuation of study treatment, Hypersensitivity [1]: 1 (2.3) n (%)
- AE leading to premature discontinuation of study treatment, Pulmonary arterial hypertension [1]: 1 (2.3) n (%)
- AE of special interest Anemia, Pancytopenia [1]: 0 n (%)
- AE of special interest Hepatic disorders, Blood bilirubin increased [1]: 0 n (%)
- AE of special interest Hepatic disorders, Gamma-glutamyltransferase increased [1]: 0 n (%)
- Subjects with at least one AE [1]: 36 (83.7) n (%)
- Subjects with at least one AE leading to study drug discontinuation [1]: 4 (9.3) n (%)
- Subjects with at least one Drug-Related AE [1]: 19 (44.2) n (%)
- Subjects with at least one Drug-Related serious AE [1]: 5 (11.6) n (%)
- Subjects with at least one Fatal serious AE [1]: 0 n (%)
- Subjects with at least one Serious AE [1]: 9 (20.9) n (%)
- Subjects with at least one Severe AE [1]: 7 (16.3) n (%)
- Treatment-emergent AE, Abdominal pain [1]: 2 (4.7) n (%)
- Treatment-emergent AE, Acute kidney injury [1]: 2 (4.7) n (%)
- Treatment-emergent AE, Back pain [1]: 2 (4.7) n (%)
- Treatment-emergent AE, Bronchitis [1]: 4 (9.3) n (%)
- Treatment-emergent AE, Cough [1]: 0 n (%)
- Treatment-emergent AE, Diarrhoea [1]: 1 (2.3) n (%)
- Treatment-emergent AE, Dizziness [1]: 2 (4.7) n (%)
- Treatment-emergent AE, Dry mouth [1]: 1 (2.3) n (%)
- Treatment-emergent AE, Dyspnoea [1]: 1 (2.3) n (%)
- Treatment-emergent AE, Fall [1]: 2 (4.7) n (%)
- Treatment-emergent AE, Foot fracture [1]: 1 (2.3) n (%)
- Treatment-emergent AE, Headache [1]: 7 (16.3) n (%)
- Treatment-emergent AE, Hypokalaemia [1]: 2 (4.7) n (%)
- Treatment-emergent AE, Hypotension [1]: 2 (4.7) n (%)
- Treatment-emergent AE, Muscle spasms [1]: 0 n (%)
- Treatment-emergent AE, Nausea [1]: 1 (2.3) n (%)
- Treatment-emergent AE, Pain in extremity [1]: 2 (4.7) n (%)
- Treatment-emergent AE, Presyncope [1]: 2 (4.7) n (%)
- Treatment-emergent AE, Rhinitis [1]: 2 (4.7) n (%)
- Treatment-emergent AE, Right ventricular failure [1]: 3 (7.0) n (%)
- Treatment-emergent AE, Tachycardia [1]: 2 (4.7) n (%)
- Treatment-emergent AE, Urinary tract infection [1]: 2 (4.7) n (%)
- Treatment-emergent AE, Viral upper respiratory tract infection [1]: 2 (4.7) n (%)
- Treatment-emergent SAE, Acute kidney injury [1]: 1 (2.3) n (%)
- Treatment-emergent SAE, Alveolitis [1]: 1 (2.3) n (%)
- Treatment-emergent SAE, Aneurysm repair [1]: 0 n (%)
- Treatment-emergent SAE, Ascites [1]: 1 (2.3) n (%)
- Treatment-emergent SAE, Asthma [1]: 1 (2.3) n (%)
- Treatment-emergent SAE, Atrial fibrillation [1]: 1 (2.3) n (%)
- Treatment-emergent SAE, Fluid overload [1]: 1 (2.3) n (%)
- Treatment-emergent SAE, Haemoptysis [1]: 1 (2.3) n (%)
- Treatment-emergent SAE, Hepatic encephalopathy [1]: 1 (2.3) n (%)
- Treatment-emergent SAE, Hepatocellular carcinoma [1]: 1 (2.3) n (%)
- Treatment-emergent SAE, Hypersensitivity [1]: 1 (2.3) n (%)
- Treatment-emergent SAE, Ileus [1]: 1 (2.3) n (%)
- Treatment-emergent SAE, Left ventricular failure [1]: 1 (2.3) n (%)
- Treatment-emergent SAE, Localised infection [1]: 0 n (%)
- Treatment-emergent SAE, Localised oedema [1]: 1 (2.3) n (%)
- Treatment-emergent SAE, Lung infection [1]: 1 (2.3) n (%)
- Treatment-emergent SAE, Oedema peripheral [1]: 1 (2.3) n (%)
- Treatment-emergent SAE, Presyncope [1]: 1 (2.3) n (%)
- Treatment-emergent SAE, Pulmonary arterial hypertension [1]: 1 (2.3) n (%)
- Treatment-emergent SAE, Pulmonary toxicity [1]: 1 (2.3) n (%)
- Treatment-emergent SAE, Right ventricular failure [1]: 2 (4.7) n (%)
- Treatment-emergent SAE, Syncope [1]: 1 (2.3) n (%)
- Treatment-emergent SAE, Troponin I increased [1]: 1 (2.3) n (%)
- Treatment-emergent SAE, Urosepsis [1]: 1 (2.3) n (%)
- Treatment-emergent SAE, Vascular procedure complication [1]: 0 n (%)
- Anemia AE cases leading to discontinuation of study treatment (DB phase, macitentan group): 1 case
- Edema/fluid retention SAEs (in one patient: peripheral edema, localized edema, fluid overload) (DB phase, macitentan group): 3 SAEs
- Patients who discontinued treatment due to AEs (DB phase, macitentan group): 4 patients
- Patients who had SAEs (DB phase, macitentan group): 20.9%
- Patients with hepatic disorder SAEs (DB phase, macitentan group): 3 patients
- Patients with anemia AEs [2]: 14.0%
- Patients with hepatic disorder AEs [2]: 14.0%
- Patients with edema and fluid retention AEs (DB phase, macitentan group (13 patients)): 30.2%
- Peripheral edema considered related to study treatment (DB phase, macitentan group, 4 patients): 9.3%
- Headache considered related to study treatment [3]: 16.3%
- Patients with severe AEs [3]: 16.3%
- Deaths considered related to macitentan treatment by the investigator (OL and OLE): None of the deaths were considered by the investigator to be related
- Patients who died (OL phase): 4 patients
- Reason for death, Hepatocellular Carcinoma [4]: 1 (1.2) n (%)
- Reason for death, Pneumonia [4]: 1 (1.2) n (%)
- Reason for death, Pulmonary Arterial Hypertension [4]: 1 (1.2) n (%)
- Reason for death, Subdural Haematoma [4]: 1 (1.2) n (%)
- Total deaths [4]: 4 (4.8) n (%)
- Macitentan-treated patients who died (across OL phase (and after end of its follow-up) and ongoing OLE phase): 7 patients
- AE leading to premature discontinuation of study treatment, Alveolitis [5]: 1 (1.2) n(%)
- AE leading to premature discontinuation of study treatment, Anaemia [5]: 2 (2.4) n(%)
- AE leading to premature discontinuation of study treatment, Ascites [5]: 1 (1.2) n(%)
- AE leading to premature discontinuation of study treatment, Diarrhoea [5]: 1 (1.2) n(%)
- AE leading to premature discontinuation of study treatment, Hypersensitivity [5]: 1 (1.2) n(%)
- AE leading to premature discontinuation of study treatment, Liver function test increased [5]: 1 (1.2) n(%)
- AE leading to premature discontinuation of study treatment, Oedema peripheral [5]: 2 (2.4) n(%)
- AE leading to premature discontinuation of study treatment, Pneumonia [5]: 1 (1.2) n(%)
- AE leading to premature discontinuation of study treatment, Pulmonary arterial hypertension [5]: 1 (1.2) n(%)
- AEs leading to premature discontinuation of study treatment, Subjects with at least one AE [5]: 10 (11.9) n(%)
- AEs of special interest Anemia, Anaemia postoperative [5]: 1 (1.2) n (%)
- AEs of special interest Anemia, Haematocrit decreased [5]: 1 (1.2) n (%)
- AEs of special interest Anemia, Subjects with atleast one AE [5]: 22 (26.2) n (%)
- AEs of special interest Edema and fluid retention, Fluid overload [5]: 1 (1.2) n (%)
- AEs of special interest Edema and fluid retention, Fluid retention [5]: 1 (1.2) n (%)
- AEs of special interest Edema and fluid retention, Generalised oedema [5]: 1 (1.2) n (%)
- AEs of special interest Edema and fluid retention, Joint swelling [5]: 1 (1.2) n (%)
- AEs of special interest Edema and fluid retention, Localised oedema [5]: 1 (1.2) n (%)
- AEs of special interest Edema and fluid retention, Peripheral swelling [5]: 2 (2.4) n (%)
- AEs of special interest Edema and fluid retention, Subjects with atleast one AE [5]: 26 (31.0) n (%)
- AEs of special interest Edema and fluid retention, Swelling [5]: 1 (1.2) n (%)
- AEs of special interest Hepatic disorders, Ammonia increased [5]: 2 (2.4) n (%)
